Consider 17 compounds from ChEMBL document CHEMBL1131037, “Structure-based design, synthesis, and biological evaluation of irreversible human rhinovirus 3C protease inhibitors. 2. Peptide structure-activity studies” (J Med Chem, 1998).

pEC50: −log10 of the molar value.

Assay [1] concerns rhinovirus B14. The assay is described as follows: Antiviral activity against HRV-14 in cell culture. It counts as functional, organism-based. The following applies: Rhinovirus B.
Assay [2] has as its system rhinovirus B14. The assay is described as follows: Cytotoxic activity against HRV-14 in cell culture. It counts as functional, rhinovirus 14. The conditions noted are these: Rhinovirus B.
The target of assay [3] is T1, Human rhinovirus A protease (Human rhinovirus sp.) (UniProt Q4U254).
T1 sequence (whole entry): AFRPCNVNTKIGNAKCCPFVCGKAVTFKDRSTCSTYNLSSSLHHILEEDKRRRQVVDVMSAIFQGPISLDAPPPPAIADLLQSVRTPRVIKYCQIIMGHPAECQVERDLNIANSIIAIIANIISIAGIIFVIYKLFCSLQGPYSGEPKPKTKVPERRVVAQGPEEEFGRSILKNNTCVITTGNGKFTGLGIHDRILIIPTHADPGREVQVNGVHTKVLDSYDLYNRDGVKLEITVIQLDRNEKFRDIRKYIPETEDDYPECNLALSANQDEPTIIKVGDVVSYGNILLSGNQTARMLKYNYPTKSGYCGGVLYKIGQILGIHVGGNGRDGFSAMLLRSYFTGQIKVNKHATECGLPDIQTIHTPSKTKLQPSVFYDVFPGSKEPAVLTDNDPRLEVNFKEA
The assay is described as follows: Binding affinity on human Rhinovirus 3C protease (rhinovirus serotype 14).

Broadly, the pEC50 is the negative decadic logarithm of the EC50, by convention in mol/L. Higher therefore signals a small EC50. By CC50 is commonly meant the concentration at which the toxic effect on the cells reaches its halfway point. A higher CC50 goes with lower toxicity to the cells.

Compound `CCOC(=O)/C=C/[C@H](CCC(N)=O)NC(=O)[C@H](CCC(=O)O)NC(=O)[C@H](CC(C)C)NC(=O)OCc1ccccc1` had a pEC50 in the assay with rhinovirus B14 [1] of less than 3.49. The CC50 in the assay with rhinovirus B14 [2] was more than 320 µM. Moreover, in assay [3], the K obs / 1 turned out to be 200 M⁻¹ s⁻¹.

In turn, `CCOC(=O)/C=C/[C@H](CCC(N)=O)NC(=O)[C@H](CC)NC(=O)[C@H](CC(C)C)NC(=O)OCc1ccccc1` gave a pEC50 in the assay on rhinovirus B14 [1] of 5.22. Besides, the CC50 in the assay with rhinovirus B14 [2] is more than 320 µM. This compound came in with a K obs / 1 in assay [3] of 4500 M⁻¹ s⁻¹.

`CCOC(=O)/C=C/[C@H](CCC(N)=O)NC(=O)[C@H](Cc1ccccc1)NC(=O)[C@@H](NC(=O)OCc1ccccc1)[C@@H](C)CC` showed a pEC50 with rhinovirus B14 [1] of 6.10. Besides, in the assay on rhinovirus B14 [2], the CC50 is more than 100 µM. For the same compound, in assay [3], the K obs / 1 turned out to be 31700 M⁻¹ s⁻¹.

As for `CCOC(=O)/C=C/[C@H](CCC(N)=O)NC(=O)[C@H](Cc1ccccc1)NC(=O)[C@H](CC(C)C)NC(=O)OCc1ccccc1C`, the pEC50 in the assay on rhinovirus B14 [1] is 6.00. In addition, in the assay on rhinovirus B14 [2], the CC50 is more than 100 µM. The compound also gave a K obs / 1 in assay [3] of 41800 M⁻¹ s⁻¹.

Regarding `CCOC(=O)/C=C/[C@H](CCC(N)=O)NC(=O)[C@H](Cc1ccccc1)NC(=O)[C@H](CC(C)C)NC(=O)[C@H](C)NC(C)=O`, the pEC50 in the assay with rhinovirus B14 [1] is 4.70. The same compound yielded a CC50 in the assay on rhinovirus B14 [2] of more than 100 µM. In assay [3], the K obs / 1 is 43400 M⁻¹ s⁻¹.

Consider `CCOC(=O)/C=C/[C@H](CCC(N)=O)NC(=O)[C@H](Cc1ccccc1)NC(=O)[C@H](CC(C)C)NC(C)=O`, for which, in the assay with rhinovirus B14 [1], the pEC50 was 4.85. The compound also displayed a CC50 in the assay on rhinovirus B14 [2] of more than 320 µM. The compound further registered a K obs / 1 in assay [3] of 3700 M⁻¹ s⁻¹.

`CCOC(=O)/C=C/[C@H](CCC(N)=O)NC(=O)OCc1ccccc1`: the negative logarithm of the EC50 (pEC50) in the assay with rhinovirus B14 [1] was less than 4.00. Also, the CC50 in the assay on rhinovirus B14 [2] was more than 100 µM. Moreover, the K obs / 1 in assay [3] stood at 4.5 M⁻¹ s⁻¹.

Take `CCOC(=O)/C=C/[C@H](CNC(N)=O)NC(=O)[C@H](Cc1ccccc1)NC(=O)[C@H](CC(C)C)NC(=O)OCc1ccccc1`: the pEC50 in the assay on rhinovirus B14 [1] is 4.49. The CC50 in the assay on rhinovirus B14 [2] is more than 100 µM. Besides, the K obs / 1 in assay [3] was 3500 M⁻¹ s⁻¹.

`CCOC(=O)/C=C/[C@H](CCC(N)=O)NC(=O)[C@H](Cc1ccccc1)NC(=O)[C@@H](NC(=O)OCc1ccccc1)C(C)(C)O`: in the assay with rhinovirus B14 [1], the pEC50 is 6.18. The compound also showed a CC50 in the assay with rhinovirus B14 [2] of more than 100 µM. The K obs / 1 in assay [3] came to 98000 M⁻¹ s⁻¹.

Consider `CCOC(=O)/C=C/[C@H](CCC(N)=O)NC(=O)[C@H](Cc1ccccc1)NC(=O)[C@H](CC(C)C)NC(=O)C(C)C`, for which, in the assay with rhinovirus B14 [1], the pEC50 is 6.00. The CC50 in the assay on rhinovirus B14 [2] is more than 320 µM. Besides, the K obs / 1 in assay [3] amounted to 18800 M⁻¹ s⁻¹.

The compound `CCOC(=O)/C=C/[C@H](CO)NC(=O)[C@H](Cc1ccccc1)NC(=O)[C@H](CC(C)C)NC(=O)OCc1ccccc1` had a negative-log EC50 (pEC50) in the assay on rhinovirus B14 [1] of less than 3.72. The compound further showed a CC50 in the assay with rhinovirus B14 [2] of 190 µM. The K obs / 1 in assay [3] turned out to be 0 M⁻¹ s⁻¹.

In the assay with rhinovirus B14 [1], `CCOC(=O)/C=C/[C@H](CCC(N)=O)NC(=O)[C@H](Cc1ccccc1)NC(=O)[C@H](C)NC(=O)OCc1ccccc1` showed a negative-log EC50 (pEC50) of 5.70. In the assay on rhinovirus B14 [2], this compound gave a CC50 of more than 320 µM. In assay [3], this compound yielded a K obs / 1 of 11300 M⁻¹ s⁻¹.

Consider `CCOC(=O)/C=C/[C@H](CCC(N)=O)NC(=O)[C@H](Cc1ccccc1)NC(=O)[C@H](CC(C)C)NC(=O)OCc1ccncc1`, for which the pEC50 in the assay with rhinovirus B14 [1] was 4.25. In the assay on rhinovirus B14 [2], this compound registered a CC50 of more than 320 µM. This compound also returned a K obs / 1 in assay [3] of 12000 M⁻¹ s⁻¹.

In the case of `CCOC(=O)/C=C/[C@H](CCC(N)=O)NC(=O)[C@H](Cc1ccccc1)NC(=O)[C@H](CC(C)C)NC(=O)OC`, in the assay with rhinovirus B14 [1], the pEC50 is 5.89. In the assay on rhinovirus B14 [2], the CC50 was more than 320 µM. The K obs / 1 in assay [3] is 9100 M⁻¹ s⁻¹.

As for `CCOC(=O)/C=C/[C@H](CCC(N)=O)NC(=O)[C@H](Cc1ccccc1)NC(=O)[C@H](CC(C)C)NC(=O)C(C)(C)C`, in the assay on rhinovirus B14 [1], the pEC50 was 5.74. Also, the 50% cytotoxic concentration (CC50) with rhinovirus B14 [2] was more than 100 µM. Moreover, the K obs / 1 in assay [3] came out at 8200 M⁻¹ s⁻¹.

Compound `CCOC(=O)/C=C/[C@H](CCC(N)=O)NC(=O)[C@H](Cc1ccccc1)NC(=O)[C@H](CC(C)C)NC(=O)OC1CCCCC1` gave a pEC50 with rhinovirus B14 [1] of 5.12. The same compound yielded a CC50 in the assay with rhinovirus B14 [2] of more than 100 µM. Moreover, in assay [3], the K obs / 1 amounted to 15500 M⁻¹ s⁻¹.

Compound `CCOC(=O)/C=C/[C@H](CCC(N)=O)NC(=O)[C@H](CSC)NC(=O)[C@H](CC(C)C)NC(=O)OCc1ccccc1` showed a negative-log EC50 (pEC50) in the assay with rhinovirus B14 [1] of 5.05. In the assay on rhinovirus B14 [2], this compound returned a CC50 of more than 320 µM. The compound also displayed a K obs / 1 in assay [3] of 2900 M⁻¹ s⁻¹.
